{
  "source": "paper PMC6368365",
  "about": "“Didehydro-Cortistatin A Inhibits HIV-1 by Specifically Binding to the Unstructured Basic Region of Tat” (mBio, 2019)",
  "key": {"[1]": {"tested_on": "Tat transactivation activity", "experiment": "Transactivation assay (luciferase) in HeLa-CD4-LTR-Luc cells transfected with FLAG-Tat", "assay_type": "cell-based, HIV-1", "settings": "25 nM, 48 h", "method": "Supplementary file : FIG S9 Tat-TAR interaction blocked by dCA in HeLa-CD4-LTR-Luc cells. (A) Transactivation assays. HeLa-CD4-LTR-Luc cells, transfected with Tat or Tat Mut, were incubated with the indicated compounds (dCA and raltegravir [“Ralt.”], 25 nM) or DMSO. Forty-eight hours later, cells were lysed and cross-linked, and luciferase activity relative to the Bradford assay or ChIP TAR RNA (Fig. 6D) was determined. Data are the mean ± SD from n = 3 independent experiments. (B) Western blot of the amount of FLAG-Tat bound to FLAG-tagged beads after elution of the samples for ChIP TAR RNA, as control input. The input of FLAG-Tat and GAPDH as a loading control. Data are representative of n = 3 independent experiments. Statistical significance was determined using one-way ANOVA with post hoc Tukey’s test, comparing DMSO to the other conditions. ***, P < 0.0001. Download FIG S9, PDF file, 0.2 MB.\nChromatin was immunoprecipitated with an anti-FLAG antibody, and qRT-PCR was performed to detect the presence of chromatin-coding TAR (Fig. 6D).\nChromatin immunoprecipitation assay (CHIP). HeLa-CD4-LTR-Luc cells (4×10^6) were transfected with different constructs (PGK-FLAG Tat and PGK-FLAG Tat Mut). […] The relative proportions of co-immunoprecipitated DNA were determined on the basis of the threshold cycle for qRT-PCR. […]"}, "FLAG-tagged Rev": {"molecular_target": "T1, FLAG-tagged Rev (Human immunodeficiency virus type 1 group M subtype B, UniProt P04618)", "T1 construct": "expressed in transfected cells; host or cells: HeLa-CD4-LTR-Luc", "T1 sequence (P04618 whole entry, looked up, the tested form may be a part)": "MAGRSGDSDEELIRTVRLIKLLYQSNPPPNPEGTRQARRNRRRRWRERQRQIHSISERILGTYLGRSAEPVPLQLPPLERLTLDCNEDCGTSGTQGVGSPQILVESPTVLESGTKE", "experiment": "Confocal immunofluorescence of FLAG-Rev subcellular localization", "assay_type": "cell-based, HIV-1", "settings": "100 nM dCA, HeLa-CD4-LTR-Luc cells", "excerpt": "If dCA were to bind the basic domain of Tat in its disordered form, then one would predict it might also bind to other basic peptide sequences and block their functions. The two well-known proteins that share a similar basic domain with Tat are HIV-1 Rev protein and the cellular protein Hexim-1 (Fig. 3A). As such, we investigated whether dCA could inhibit these similar basic domain functions. The basic domain of Rev is responsible for its nuclear localization ([31]); therefore, we assessed whether dCA could impact the subcellular localization of Rev (Fig. 3B) as previously shown for Tat ([10]). We transfected HeLa-CD4-LTR-Luc cells with a plasmid expressing FLAG-tagged Rev and assessed Rev localization in the presence of 100 nM dCA. […] Twenty-four hours later, cells were collected, and total, nuclear, and cytoplasmic mRNAs were extracted, reverse transcribed, and quantified by quantitative real-time PCR (qRT-PCR).\n(A) Sequence of the basic domains of HIV Tat HXB3, HIV Rev Bru and intracellular Hexim-1. […] (C) Quantification of the nucleolar fluorescence of panel B using ImageJ. […] Total, nuclear, and cytoplasmic mRNAs were extracted, and viral messages were determined by qRT-PCR. […] (G) Quantification of nuclear fluorescence of panel F using ImageJ. […] Statistical significance was determined using one-way ANOVA with post hoc Tukey’s test. ns, not significant; ***, P < 0.0001; **, P < 0.001. […]"}},
  "data": [
    {"smiles": "CN(C)C1CC23CCC4(O2)C(=CCC2(C)C(c5ccc6ccncc6c5)=CCC24)C=C3C(O)C1O", "note": "(centres unmarked) [dCA, didehydro-cortistatin A]", "values": [
      {"measurement": "Tat transactivation activity (luciferase), transfected FLAG-Tat", "setting": "[1]", "result": "inhibited Tat transactivation activity"},
      {"measurement": "subcellular localization of Rev", "setting": "FLAG-tagged Rev", "result": "localization of Rev was left unchanged"}
    ]}
  ]
}
